Laboratory results taken from article PMC9486805, “Identification of a Phage Display-Derived Peptide Interacting with the N-Terminal Region of Factor VII Activating Protease (FSAP) Enables Characterization of Zymogen Activation” (ACS Chemical Biology, 2022).

Columns and labels:
pro-FSAP in human plasma [1] = biological target: T1, pro-FSAP in human plasma (Homo sapiens, UniProt Q14520); test: Western blotting of activated plasma, FSAP-inhibitor complex; type: biochemical; conditions: hirudin and citrate plasma 1:2, 1 h at 37 °C, non-reducing; NNKC9/41 25 µM (Fig S6)
T1 construct: from tissue; host or cells: human hirudin or citrate plasma from healthy donors, diluted 1:12
Method: Hirudin plasma Citrate plasma
Fig S6. Western blotting of activated plasma: Hirudin or citrate plasma (1:2) dilution was incubated for 1 h at 37 °C with test substances and the samples were analyzed by Western blotting with an anti-FSAP polyclonal antibody under non-reducing conditions. Top panel: NNKC9/41 and Ser-Ser cyclic peptides (25 µM) were compared to histones (50 µg/ml). Lower panel: 100, 50, 25 and 12.5 µM NNKC9/41 and Ser-Ser cyclicpeptide were compared. Arrows on the right indicate the presence of FSAP and FSAP-inhibitor complexes and MW markers are indicated on the left.Results are representative of 3 independent experiments. […]

[2] = system: recombinant serine protease domain (SPD) of FSAP; test: Activity of recombinant serine protease domain of FSAP; type: biochemical, human; conditions: rSPD 20 nM; peptide 0-50 μM; S2288 250 µM (Fig S7A)
Method: Fig S7. […]
(§1) nM) and Factor Xa (20 nM) with S-2765 (250 µM). pro-FSAP (20 nM) and recombinant serine protease domain (rSPD) (20 nM) with S2288 (250 µM). All pro-enzymes and enzyme were obtained from Enzyme Research Laboratories (South Bend, IN, USA) except plasminogen and FSAP, which were isolated in house; and pro-uPA was from Grünenthal (Stolberg, Germany). All chromogenic substrates were from Hyphen Biomed (Neuville Sur Oise, France). Experiments were carried out in TBS with Tween-20 (0.1 % wt/ vol) BSA (0.3% wt/vol) and CaCl2 (2 mM). Absorbance at 405 nm was measured over time and the enzyme activity is depicted was measured in duplicates (mean + or -range) and similar results were obtained in 3

[3] = system: light chain/serine protease domain (SPD); test: Binding of biotinylated peptides to captured recombinant FSAP light chain/SPD; design: species or system human; conditions: peptide 1 μM; triplicate wells (Fig 2E)
Method: Figure 2 NNKC9/41 interacts with the NTR of pro-FSAP: (A) To determine peptide binding to pro-FSAP, wells were coated with 2 μg/mL pro-FSAP and biotinylated NNKC9/41 and NNK11/189 and their respective scrambled controls were added in different concentration (0–5 μM). Peroxidase-labeled streptavidin was used to detect peptide binding. (B) Same procedure as in (A) except that different proteins were immobilized and biotinylated NNKC9/41 (0–30 μM) was added and its binding was measured. (C) Schematic structure of pro-FSAP with the heavy chain consisting of an NTR, three EGF domains, and a kringle domain, followed by the light chain harboring the serine protease domain (SPD). The binding domains of antibodies used in this study are indicated. (D) Recombinant complete heavy chain (heavy) and truncated heavy chain variants ΔNTR, ΔEGF1, ΔEGF2, ΔEGF3, and ΔKringle were expressed in bacteria and analyzed by sodium dodecyl sulfate poly(acrylamide) gel electrophoresis (SDS-PAGE) followed by Coomassie staining. […] Biotinylated NNKC9/41 or the scrambled control peptide was added at 1 μM and peptide binding was measured with peroxidase-linked streptavidin. […]
Wells were coated with anti-FSAP polyclonal antibodies (5 μg/mL). […] Subsequently, the plates were washed, and bound peptides were detected with peroxidase-coupled streptavidin. […]

plasminogen = test: Specificity towards pro-enzymes: plasminogen; type: biochemical; conditions: plasminogen 50 nM; peptide 0-50 μM; CS41; duplicates, 3 experiments (Fig S7)
Method: Fig S7. […]
as §1, with “Bend,” for “nM) and Factor Xa (20 nM) with S-2765 (250 µM). pro-FSAP (20 nM) and recombinant serine protease domain (rSPD) (20 nM) with S2288 (250 µM). All pro-enzymes and enzyme were obtained from Enzyme Research Laboratories (South Bend,”

pro-FSAP in human plasma [4] = biological target: T1, pro-FSAP in human plasma; test: Activation of endogenous pro-FSAP in plasma, fluorogenic substrate turnover; type: biochemical
Method: Human citrate plasma (0.38% w/v) or hirudin plasma (25 μg/mL Lepirudin) was obtained from five healthy donors. Plasma was diluted at 1:12 and mixed with various test substances that potentially activate or inhibit pro-FSAP. Ac–Ala–Lys–Nle–Arg–AMC (amino–methyl–coumarin) was used as a sensitive and specific substrate for FSAP.[35] Hydrolysis of the fluorogenic substrates was measured using a Synergy HI plate reader with excitation at 320 nm and emission at 460 nm at 37 °C for 60 min. The maximal velocity was calculated from the linear part of the progress curve. In limited experiments, the second-generation fluorogenic FSAP substrate (Ac–Pro–DTyr–Lys–Arg–AMC)[34] was used. Pro-uPA activation, formation of FSAP−α2-antiplasmin, and western blotting with anti-FSAP antibodies were also used to monitor pro-FSAP activation.

T1 sequence (Q14520 24-560): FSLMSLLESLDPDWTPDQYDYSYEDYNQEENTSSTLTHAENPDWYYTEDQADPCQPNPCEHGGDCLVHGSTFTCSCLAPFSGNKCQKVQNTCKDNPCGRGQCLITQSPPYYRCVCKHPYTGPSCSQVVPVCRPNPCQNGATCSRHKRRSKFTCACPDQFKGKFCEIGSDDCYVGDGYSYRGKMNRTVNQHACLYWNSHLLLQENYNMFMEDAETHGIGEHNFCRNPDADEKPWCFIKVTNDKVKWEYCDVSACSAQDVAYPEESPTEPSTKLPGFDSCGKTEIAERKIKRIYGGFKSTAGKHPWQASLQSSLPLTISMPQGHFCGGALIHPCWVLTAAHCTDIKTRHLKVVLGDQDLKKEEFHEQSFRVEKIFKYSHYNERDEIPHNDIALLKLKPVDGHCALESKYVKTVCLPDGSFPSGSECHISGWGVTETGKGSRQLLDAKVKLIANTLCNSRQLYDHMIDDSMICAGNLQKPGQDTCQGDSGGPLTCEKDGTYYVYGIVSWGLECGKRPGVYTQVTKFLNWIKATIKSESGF

Question: Which FSAP-inhibitor complex band (pro-FSAP in human plasma [1]) does the source give for CRGAMWMYKRC [NNKC9/41] here?
Answer: emergence of an FSAP-inhibitor complex band

Question: What about the “effect on activity of recombinant SPD” value [2] of the same sequence?
Answer: did not alter the activity

Question: And the “peptide binding to light chain/SPD” value [3]?
Answer: very low binding

Question: And the effect on activity (plasminogen)?
Answer: did not influence the activity

Question: And the “inhibitory effect of citrate after recalcification” value (pro-FSAP in human plasma [4]; citrate plasma 1:12, recalcified, data not shown)?
Answer: reversed by recalcification

Question: And the “effect in citrate plasma 1:12” value (pro-FSAP in human plasma [4]; citrate plasma 1:12, 10 μM, 3 donors (Fig S5))?
Answer: weak

Question: And the “fluorogenic substrate turnover vs histones” value (pro-FSAP in human plasma [4]; hirudin plasma 1:12, NNKC9/41 0–25 μM, histones 0–25 μg/mL, three donors (Fig 4A))?
Answer: stronger effect than histones

Question: What about the “pro-FSAP activation in plasma” value (pro-FSAP in human plasma [4]; hirudin plasma 1:12, peptides 25 μM, histones 25 μg/mL, Ac–Ala–Lys–Nle–Arg–AMC, duplicate wells (Fig 1D)) of the same sequence?
Answer: robust activation of pro-FSAP comparable to that with histones

Question: What about the “pro-FSAP activation in hirudin plasma” value (pro-FSAP in human plasma [4]; hirudin plasma, dilutions 1:2 to 1:12, 10 μM, 3 donors (Fig S5)) of the same sequence?
Answer: activated pro-FSAP in plasma

Question: What about the “lag time of pro-FSAP activation” value (pro-FSAP in human plasma [4]; plasma, compared to histones (Fig 1D)) of the same sequence?
Answer: > 15 min
